Molecules are shown by their SMILES. Activity calls are given as the source filed them. The rule behind the calls is not given here.

The values below come from PubChem BioAssay AID1259411 (Chemical Carcinogenesis Research Information System (CCRIS), 2018).

This data set concerns rodent carcinogenicity bioassays, tumor incidence. The experiment in a line: CCRIS carcinogenicity studies. The essentials: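 NCI-built, expert-reviewed records of carcinogenicity and related test outcomes (mutagenicity, tumor promotion/inhibition) compiled from published and report sources, historical span 1985-2011, not updated.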

`O=C(O)c1ccc([N+](=O)[O-])cc1`: the carcinogen call was “inactive; negative” (Species: MOUSE, Strain/Sex: B6C3F1/FEMALE, Route: ORAL, Dose: 0, 1250, 2500, 5000 PPM IN DIET FOR 103 WK (STUDY DURATION: 104 WK), Dose: 0, 1250, 2500, 5000 PPM IN DIET FOR 103 WK (STUDY DURATION: 104 WK)); “inactive; negative” (Species: MOUSE, Strain/Sex: B6C3F1/MALE, Route: ORAL, Dose: 0, 1250, 2500, 5000 PPM IN DIET FOR 103 WK (STUDY DURATION: 104 WK), Dose: 0, 1250, 2500, 5000 PPM IN DIET FOR 103 WK (STUDY DURATION: 104 WK)); “active; positive” (Species: RAT, Strain/Sex: F344/FEMALE, Route: ORAL, Dose: 0, 1250, 2500, 5000 PPM IN DIET FOR 103 WK (STUDY DURATION: 104 WK), Dose: 0, 1250, 2500, 5000 PPM IN DIET FOR 103 WK (STUDY DURATION: 104 WK), Tumor Site: Type of Lesion: CLITORAL GLAND: ADENOMA, ADENOMA OR CARCINOMA); “inactive; negative” (Species: RAT, Strain/Sex: F344/MALE, Route: ORAL, Dose: 0, 1250, 2500, 5000 PPM IN DIET FOR 103 WK (STUDY DURATION: 104 WK), Dose: 0, 1250, 2500, 5000 PPM IN DIET FOR 103 WK (STUDY DURATION: 104 WK)).

Regarding `Clc1ccc(-c2ccc(Cl)c(Cl)c2Cl)c(Cl)c1Cl`, the carcinogen call (Species: RAT, Strain/Sex: SHERMAN/FEMALE, Route: ORAL, Dose: 100 MG/KG IN DIET, Tumor Site: Type of Lesion: LIVER: NEOPLASTIC NODULE, HEPATOCELLULAR CARCINOMA) is “active; positive”; the carcinogen call (Species: RAT, Strain/Sex: SPRAGUE-DAWLEY/FEMALE, Route: ORAL, Dose: 0, 25, 50, 100 PPM IN DIET FOR THE DURATION OF STUDY (STUDY DURATION: 24 MO), Dose: 0, 25, 50, 100 PPM IN DIET FOR THE DURATION OF STUDY (STUDY DURATION: 24 MO), Tumor Site: Type of Lesion: LIVER: TUMOR) was “active; positive”; the carcinogen call (Species: RAT, Strain/Sex: SPRAGUE-DAWLEY/FEMALE, Route: ORAL, Dose: 0, 100 PPM IN DIET FOR 16 MO AND 50 PPM FOR AN ADDITIONAL 8 MO FOLLOWED BY CONTROL DIET FOR 5 MO (STUDY DURATION: 29 MO), Tumor Site: Type of Lesion: LIVER: TRABECULAR CARCINOMA, ADENOCARCINOMA) was “active; positive”; the carcinogen call (Species: RAT, Strain/Sex: SPRAGUE-DAWLEY/MALE, Route: ORAL, Dose: 0, 25, 50, 100 PPM IN DIET FOR THE DURATION OF STUDY (STUDY DURATION: 24 MO), Dose: 0, 25, 50, 100 PPM IN DIET FOR THE DURATION OF STUDY (STUDY DURATION: 24 MO), Tumor Site: Type of Lesion: THYROID GLAND: ADENOMA OR CARCINOMA, LIVER: TUMOR) was “active; positive”; the carcinogen call (Species: RAT, Strain/Sex: SPRAGUE-DAWLEY/MALE, Route: ORAL, Dose: 0, 100 PPM IN DIET FOR 16 MO AND 50 PPM FOR AN ADDITIONAL 8 MO FOLLOWED BY CONTROL DIET FOR 5 MO (STUDY DURATION: 29 MO)) is “inactive; negative”; the carcinogen call (Species: RAT, Strain/Sex: WISTAR/MALE, Route: ORAL, Dose: 0, 50, 100 PPM IN A 10% PROTEIN DIET FOR 4 MO (STUDY DURATION: 4 MO), Dose: 0, 50, 100 PPM IN A 10% PROTEIN DIET FOR 4 MO (STUDY DURATION: 4 MO), Tumor Site: Type of Lesion: THYMUS: NEOPLASM, SPLEEN: NEOPLASM) is “active; positive”.

For the compound `c1ccc2c(c1)-c1ccc3ccc4cccc5cc-2c1c3c45`, the carcinogen call runs as follows: (Species: MOUSE, Strain/Sex: ICR/FEMALE, Route: DERMAL, Tumor Site: Type of Lesion: INTEGUMENTARY SYSTEM (SKIN): PAPILLOMA, CARCINOMA) “active; positive”; (Species: MOUSE, Strain/Sex: XVII-NC/Z/MALE, Route: SUBCUTANEOUS, Tumor Site: Type of Lesion: INJECTION SITE: SARCOMA) “active; positive”; (Species: RAT, Strain/Sex: OSBORNE-MENDEL/FEMALE, Route: LUNG IMPLANT, Dose: 0, 0.16, 0.83, 4.15 MG IN BEESWAX/TRIOCTANOIN (STUDY DURATION: LIFETIME), Dose: 0, 0.16, 0.83, 4.15 MG IN BEESWAX/TRIOCTANOIN (STUDY DURATION: LIFETIME), Tumor Site: Type of Lesion: LUNG: EPIDERMOID CARCINOMA) “active; positive”.

`C=CCN=C=S`: the carcinogen call (Species: MOUSE, Strain/Sex: B6C3F1/FEMALE, Route: GAVAGE, Dose: 0, 12, 25 MG/KG IN CORN OIL FOR 103 WK (STUDY DURATION: 103 WK), Dose: 0, 12, 25 MG/KG IN CORN OIL FOR 103 WK (STUDY DURATION: 103 WK)) is “inactive; negative”; the carcinogen call (Species: MOUSE, Strain/Sex: B6C3F1/MALE, Route: GAVAGE, Dose: 0, 12, 25 MG/KG IN CORN OIL FOR 103 WK (STUDY DURATION: 103 WK), Dose: 0, 12, 25 MG/KG IN CORN OIL FOR 103 WK (STUDY DURATION: 103 WK)) was “inactive; negative”; the carcinogen call (Species: RAT, Strain/Sex: F344/FEMALE, Route: GAVAGE, Dose: 0, 12, 25 MG/KG IN CORN OIL FOR 103 WK (STUDY DURATION: 103 WK), Dose: 0, 12, 25 MG/KG IN CORN OIL FOR 103 WK (STUDY DURATION: 103 WK), Tumor Site: Type of Lesion: INTEGUMENTARY SYSTEM (SUBCUTANEOUS TISSUE): FIBROSARCOMA) is recorded as “equivocal”; the carcinogen call (Species: RAT, Strain/Sex: F344/MALE, Route: GAVAGE, Dose: 0, 12, 25 MG/KG IN CORN OIL FOR 103 WK (STUDY DURATION: 103 WK), Dose: 0, 12, 25 MG/KG IN CORN OIL FOR 103 WK (STUDY DURATION: 103 WK), Tumor Site: Type of Lesion: URINARY BLADDER: TRANSITIONAL CELL PAPILLOMA) was “active; positive”.

On to `O=c1[nH]c2ccccc2c2ccccc12`, for which the carcinogen call runs as follows: (Species: MOUSE, Strain/Sex: CD-1/FEMALE, Route: INTRAPERITONEAL, Dose: 0, 5, 10 AND 20 µL OF A 0.05 MOLAR SOLUTION ON DAYS 1, 8 AND 15 OF LIFE RESPECTIVELY (TOTAL DOSE: 1.75 UMOL) (STUDY DURA, Dose: 0, 5, 10 AND 20 µL OF A 0.05 MOLAR SOLUTION ON DAYS 1, 8 AND 15 OF LIFE RESPECTIVELY (TOTAL DOSE: 1.75 UMOL) (STUDY DURA) “inactive; negative”; (Species: MOUSE, Strain/Sex: CD-1/MALE, Route: INTRAPERITONEAL, Dose: 0, 5, 10 AND 20 µL OF A 0.05 MOLAR SOLUTION ON DAYS 1, 8 AND 15 OF LIFE RESPECTIVELY (TOTAL DOSE: 1.75 UMOL) (STUDY DURA, Dose: 0, 5, 10 AND 20 µL OF A 0.05 MOLAR SOLUTION ON DAYS 1, 8 AND 15 OF LIFE RESPECTIVELY (TOTAL DOSE: 1.75 UMOL) (STUDY DURA) “inactive; negative”.

Consider `CC1COCCN1N=O` (stereo unspecified), for which the carcinogen call (Species: RAT, Strain/Sex: F344/FEMALE, Route: ORAL, Dose: 45 MG/L IN DRINKING WATER FOR 26 WK, Tumor Site: Type of Lesion: LIVER: HEPATOCELLULAR CARCINOMA, HEMANGIOENDOTHELIAL SARCOMA, ESOPHAGUS: PAPILLOMA, CARCINOMA) is “active; positive”.

With `CCCCCCCCCCCCN(C)N=O`, the carcinogen call (Species: RAT, Strain/Sex: F344/MALE, Route: GAVAGE, Dose: 60 MG/ML IN CORN OIL 2/WK FOR 30 WK, STUDY DURATION: 112 WK, Tumor Site: Type of Lesion: LUNG: ADENOCARCINOMA, FORESTOMACH: CARCINOMA, BLADDER, Tumor Site: Type of Lesion: LUNG: ADENOCARCINOMA, FORESTOMACH: CARCINOMA, BLADDER) is “active; positive”.
